Data published in US20220220106A1, “QUINOLINE COMPOUNDS AND PHARMACEUTICAL COMPOSITIONS AND USES THEREOF” (Academy of Military Medical Sciences, priority 2019, published 2022).
pIC50: −log10 of the molar value.

What was measured:
mTOR kinase = molecular target: T1, mTOR kinase (Homo sapiens, UniProt P42345); test: In vitro inhibitory activity on mTOR kinase (TR-FRET, GFP-4E-BP1 substrate); format: biochemical; details: for pIC50: 0.5 μg/mL mTOR, 0.4 μM GFP-4E-BP1, 3 μM ATP
T1 construct: purchased Thermo Fisher PV4753
Method: Preparation of Reaction Buffers:
Basic buffer composition: 50 mM (mmol/L) HEPES (pH 7.5), 1 mM EGTA, 0.01% Tween-20, 10 mM MnCl2, 2 mM DTT (diluted from 500 mM before used).
(2) mTOR kinase buffer solution: 1650 μL of 2.5×mTOR kinase buffer solution was composed of 1640.2 μL of 1× basic buffer and 9.8 μL of mTOR (0.21 mg/mL stock solution), and the final concentration was 0.5 μg/mL.
(3) Detection buffer solution: 3960 μL of 2× detection buffer solution was composed of 3797.1 μL of TR-FRET buffer diluent (purchased from Thermo Fisher, catalog number: PV3574), 4.5 μL of Tb-anti-p4E-BP1 antibody (3.49 μM stock solution, purchased from Thermo Fisher, catalog number: PV4757) and 158 μL of EDTA (500 mM stock solution), and the final concentrations were 2 nM Tb-anti-p4E-BP1 antibody and 10 mM EDTA.
(1) 20 μL of 100% DMSO solution containing 5 mM compound to be tested was added to a 96-well plate.
(2) The compound was serially diluted 3 times in DMSO.
(3) 1 μL of the compound in the previous step was taken, diluted with 19 μL of mTOR kinase buffer, and transferred to another 96-well plate.
(4) 4 μL of mTOR kinase solution (purchased from Thermo Fisher, catalog number: PV4753) was added to a 384-well plate.
(5) 2 μL of the compound in G was taken out and added to the 384-well plate with mTOR kinase, and incubated at room temperature for 15 minutes.
(6) 4 μL of substrate solution was added to initiate the reaction.
The final concentrations of mTOR reaction solution were: 0.5 μg/mL mTOR, 0.4 μM GFP-4E-BP1, 3 μM ATP.
The final concentration of the DMSO solution was 1%.
(7) Incubation was performed for 60 minutes at room temperature.
(8) 10 μL of detection buffer was added. The final concentrations were 2 nM Tb-anti-p4E-BP1 antibody and 10 mM EDTA.
(9) Incubation was performed for 30 minutes at room temperature.
(10) TR-FRET value was read on MD5 multi-mode plate reader (Molecular Devices). The excitation wavelength was 340 nm, the emission wavelength 1 was 495 nm, and the emission wavelength 2 was 520 nm. The ratio of 520 nm/495 nm readings was calculated as TR-FRET value.
IC50 of compound was fitted by nonlinear regression equation:
Y=Bottom+(Top-Bottom)/(1+10^((LogIC50-X)*HillSlope));
X: common logarithm value of compound concentration; Y: TR-FRET value (520 nm/495 nm).

mTORC1 = molecular target: T2, mTORC1 (Homo sapiens, UniProt P42345); test: Western blot, phosphorylation of Thr389 of p70S6K1 in RD cells (mTORC1 inhibition); format: cell-based; details: 20 μM, 2 hours, Western blot (FIG. 1)
T2 construct: endogenous in cells; host or cells: RD cells
Method: In order to test the inhibitory activity of the synthesized compounds on the two mTOR complexes, the inhibitory activity experiments of mTORC1 and mTORC2 were carried out. Since mTORC1 and mTORC2 exerted their function by activating the phosphorylation of downstream substrates, the inhibitory activity of the compounds on mTORC1 and mTORC2 could be determined by detecting the phosphorylation levels of the Thr389 site of mTORC1 downstream substrate p70S6K1 and the Ser473 site of mTORC2 downstream substrate Akt.
Pretreatment of Compound:
(1) RD cells were cultured in DMEM medium containing 10% FBS and 1×PS (penicillin and streptomycin were at concentrations 100 IU and 100 μg/mL, respectively) at 37° C. and 5% CO2.
(2) The RD cells (5×10^5 cells/2 mL medium) were inoculated into a 6-well plate and incubated at 37° C. and 5% CO2 for 24 hours.
(3) The cells were washed once with PBS, and the cells were cultured in serum-free medium without nutrients overnight.
(4) Formulation of compounds: […]
Preparation of insulin medium: Insulin was diluted in DMEM medium containing 10% FBS and 1×PS so that the final concentration of insulin was 167 nM.
Pretreatment of compound to be tested: The compound was dissolved in DMSO so that the concentration of the test compound was 20 mM, and the compound was diluted in 167 nM insulin medium to reach a concentration of 20 μM.
Preparation of rapamycin solution: Rapamycin was dissolved in DMSO to a concentration of 10 mM, and the rapamycin was diluted in 167 nM insulin medium to reach a concentration of 20 μM.
(5) The serum-free medium in each well was removed.
(6) 2 mL of complete medium containing DMSO was added to each well as a control carrier. The final concentration of DMSO was 0.2%.
(7) 2 mL of 20 μM rapamycin solution and 20 μM the compound to be tested were added to the designated wells, respectively. The final concentration of DMSO was 0.2%.
(8) The cells were incubated for 2 hours at 37° C. and 5% CO2.
Protein extraction and concentration determination:
(1) The cells were washed once with refrigerated PBS, and then the PBS was discarded.
(2) 150 μL of cell extraction buffer (RIPA, […], catalog number: C1053) was transferred into each well to lyse the cells, and then the resulting cell solution were incubated on ice for 30 minutes.
(3) Centrifugation was performed at 14000 rpm (13000× g) for 30 minutes at 4° C.
(4) The supernatant was transferred into a new eppendorf tube, and the cell lysate was stored at −80° C. before testing.
(5) The protein concentration was determined by BCA method.
Preparation of Buffer Solutions:
(1) 100× Protease inhibitor (Beyotime, catalog number: P1005): 1 mL of redistilled water was added to the protease inhibitor and stirred gently until the solid was completely dissolved.
(2) Lysis Buffer: […] of 100× protease inhibitor and 2× phosphatase inhibitor Cocktails PhosSTOP (Beyotime, catalog number: P1082) were added to 100 mL of the cell extract, and stirred gently until it was completely dissolved.
(3) Electrophoresis Running Buffer:
10×MOPS buffer: 52.33 g of MOPS, 30.29 g of Tris base, 10 mL of 0.5 mol/L EDTA (pH 8.5) and 5 g of SDS was dissolved in 400 mL of redistilled water, stirred to dissolve, and the pH was adjusted to 7.5, then redistilled water was added again to reach a volume of 500 mL; 1×MOPS: 100 mL of 10×MOPS was diluted with redistilled water to 1000 mL.
(4) 1× Transfer Buffer: […] of 10× transfer buffer (144 g of glucine, 30.3 g of trisbase, and distilled water were mixed to reach a volume of 1 L) and 400 mL of methanol were dissolved in 1500 mL of redistilled water, and then the redistilled water was added to reach a volume of 2000 mL. […]

SMILES | inhibitory activity on mTOR kinase, in words (mTOR kinase) | pIC50 (mTOR kinase) | p70 phosphorylation expression level (mTORC1)
CC(=O)/C=C/c1cnc2ccc(-c3ccc(C)nc3)cc2c1Nc1cccc(C(F)(F)F)c1 [HTL-2-38, (E)-6-[3-(6-methyl)pyridyl]-4-[3-(trifluoromethyl)phenyl]aminoquinoline-3-butenone] | weak inhibitory activity | 5.99 | significantly down-regulate
NC(=O)c1ccc(-c2ccc3ncc4oc(=O)n(-c5cccc(C(F)(F)F)c5)c4c3c2)cc1 [HTL-5-21, 8-(4-carbamoyl)phenyl-1-[3-(trifluoromethyl)phenyl]oxazolo[5,4-c]quinolin-2(1H)-one] | better inhibitory activity | 7.82 | significantly down-regulate
Nc1cccc(Nc2ccc3ncc4ccc(=O)n(-c5cccc(C(F)(F)F)c5)c4c3c2)c1 [HTL-6-11, 9-(3-aminophenyl)imino-2-oxo-1-[3-(trifluoromethyl)phenyl]-1,2-dihydrobenzo[h][1,6]naphthyridine] | moderate inhibitory activity | 6.59 | significantly down-regulate
Nc1cccc(Nc2ccc3ncc4ccc(=O)n(-c5cccc(C(F)(F)F)c5)c4c3c2)n1 [HTL-6-12, 9-[2-(6-aminopyridyl)]imino-2-oxo-1-[3-(trifluoromethyl)phenyl]-1,2-dihydrobenzo[h][1,6]naphthyridine] |  | 7.17 | significantly down-regulate
NC(=O)/C=C/c1ccc2ncc3oc(=O)n(-c4cccc(C(F)(F)F)c4)c3c2c1 [HTL-6-30, (E)-8-(2-carbamoyl-vinyl)-1-[3-(trifluoromethyl)phenyl]oxazolo[5,4-c]quinolin-2(1H)-one] | better inhibitory activity | 7.32 | significantly down-regulate
CCC(=O)Nc1ccc(-c2ccc3ncc4ccc(=O)n(-c5cccc(C(F)(F)F)c5)c4c3c2)cn1 [HTL-6-45, 9-[3-(6-propionylamino)pyridyl]-2-oxo-1-[3-(trifluoromethyl)phenyl]-1,2-dihydrobenzo[h][1,6]naphthyridine] |  | 7.53 | significantly down-regulate
O=c1ccc2cnc3ccc(-c4ccc5ncccc5c4)cc3c2n1-c1cccc(C(F)(F)F)c1 [HTL-6-47, 9-(6-quinolyl)-2-oxo-1-[3-(trifluoromethyl)phenyl]-1,2-dihydrobenzo[h][1,6]naphthyridine] | excellent inhibitory activity | 8.21 | significantly down-regulate
O=c1ccc2cnc3ccc(-c4cccnc4F)cc3c2n1-c1cccc(C(F)(F)F)c1 [HTL-6-48, 9-[3-(2-fluoro)pyridyl]-2-oxo-1-[3-(trifluoromethyl)phenyl]-1,2-dihydrobenzo [h][1,6]naphthyridine] |  | 7.50 | significantly down-regulate
Cc1ncccc1-c1ccc2ncc3ccc(=O)n(-c4cccc(C(F)(F)F)c4)c3c2c1 [HTL-6-49, 9-[3-(2-methyl)pyridyl]-2-oxo-1-[3-(trifluoromethyl)phenyl]-1,2-dihydrobenzo[h][1,6]naphthyridine] |  | 7.92 | significantly down-regulate
O=c1ccc2cnc3ccc(-c4cc[nH]n4)cc3c2n1-c1cccc(C(F)(F)F)c1 [HTL-6-50, 9-[(1H)-3-pyrazolyl]-2-oxo-1-[3-(trifluoromethyl)phenyl]-1,2-dihydrobenzo[h][1,6]naphthyridine] | moderate inhibitory activity | 6.80 | significantly down-regulate
O=c1ccc2cnc3ccc(-c4ccc(F)nc4)cc3c2n1-c1cccc(C(F)(F)F)c1 [HTL-7-01, 9-[3-(6-fluoro)pyridyl]-2-oxo-1-[3-(trifluoromethyl)phenyl]-1,2-dihydrobenzo[h][1,6]naphthyridine] |  | 7.54 | significantly down-regulate
COc1ccc(-c2ccc3ncc4ccc(=O)n(-c5cccc(C(F)(F)F)c5)c4c3c2)cn1 [HTL-7-03, 9-[3-(6-methoxy)pyridyl]-2-oxo-1-[3-(trifluoromethyl)phenyl]-1,2-dihydrobenzo[h][1,6]naphthyridine] | excellent inhibitory activity | 8.14 | significantly down-regulate
O=C1Cc2cc(-c3ccc4ncc5ccc(=O)n(-c6cccc(C(F)(F)F)c6)c5c4c3)ccc2N1 [HTL-7-04, 9-[5-(2-oxo)indolyl]-2-oxo-1-[3-(trifluoromethyl)phenyl]-1,2-dihydrobenzo[h][1,6]naphthyridine] | moderate inhibitory activity | 6.62 | significantly down-regulate
CCCC(=O)Nc1ccc(-c2ccc3ncc4ccc(=O)n(-c5cccc(C(F)(F)F)c5)c4c3c2)cn1 [HTL-7-05, 9-[3-(6-butyrylamino)pyridyl]-2-oxo-1-[3-(trifluoromethyl)phenyl]-1,2-dihydrobenzo[h][1,6]naphthyridine] |  | 7.41 | significantly down-regulate
